Measurements taken from patent US10030020B2, “Spirocycle compounds and methods of making and using same” (Abide Therapeutics, Inc., priority 2016, dated 2018).
Where two headings read alike, the source gives them in different places.

Columns and labels:
Type in all cases: biochemical
MAGL = MAGL (Mus musculus (Mouse), UniProt O35678); assay: In vitro competitive activity-based protein profiling (mouse brain membrane fraction or cell lysates), MAGL band; details: for inhibition at 1 µM: read-out: MAGL % Inh 1 μM (mouse); for IC50: competitive ABPP
Chain of MAGL (O35678 whole entry): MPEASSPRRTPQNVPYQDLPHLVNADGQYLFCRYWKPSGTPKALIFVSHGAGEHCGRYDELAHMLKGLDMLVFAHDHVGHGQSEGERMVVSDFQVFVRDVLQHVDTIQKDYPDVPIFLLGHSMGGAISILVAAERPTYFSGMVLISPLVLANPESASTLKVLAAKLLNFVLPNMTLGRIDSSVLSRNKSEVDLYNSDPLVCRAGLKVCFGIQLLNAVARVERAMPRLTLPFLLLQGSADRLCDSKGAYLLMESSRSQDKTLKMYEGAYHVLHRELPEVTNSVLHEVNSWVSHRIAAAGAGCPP
Method: (§1) In Vitro Competitive Activity-Based Protein Profiling.
(§2) Proteomes (mouse brain membrane fraction or cell lysates) (50 μL, 1.0 mg/mL total protein concentration) were preincubated with varying concentrations of inhibitors at 37° C. After 30 min, FP—Rh (1.0 μL, 50 μM in DMSO) was added and the mixture was incubated for another 30 min at 37° C. Reactions were quenched with SDS loading buffer (50 μL-4×) and run on SDS-PAGE.

ABHD6 = ABHD6 (Mus musculus (Mouse), UniProt Q8R2Y0); assay: In vitro competitive activity-based protein profiling (mouse brain membrane fraction or cell lysates), ABHD6 band; details: for inhibition at 1 µM: read-out: ABHD6 % Inh 1 μM (mouse); for IC50: competitive ABPP
Chain of ABHD6 (Q8R2Y0 whole entry): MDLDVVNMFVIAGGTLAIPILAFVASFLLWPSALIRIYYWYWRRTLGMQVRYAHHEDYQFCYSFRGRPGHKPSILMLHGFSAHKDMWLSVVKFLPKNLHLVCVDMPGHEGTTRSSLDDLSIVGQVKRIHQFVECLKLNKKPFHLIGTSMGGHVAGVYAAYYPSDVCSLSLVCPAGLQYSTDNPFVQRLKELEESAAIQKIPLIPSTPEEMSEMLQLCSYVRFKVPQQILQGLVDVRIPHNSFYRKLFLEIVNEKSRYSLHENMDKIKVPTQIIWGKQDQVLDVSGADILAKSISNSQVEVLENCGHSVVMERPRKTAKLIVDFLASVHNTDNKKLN
Method: as §1
as §2, with “SDS-PAGE. Following gel imaging, serine hydrolase activity was determined by measuring fluorescent intensity of gel bands corresponding to MAGL, ABHD6 and FAAH using ImageJ 1.43u software.” for “SDS-PAGE.”

FAAH = FAAH (Mus musculus (Mouse), UniProt O08914); assay: In vitro competitive activity-based protein profiling (mouse brain membrane fraction or cell lysates), FAAH band; details: for inhibition at 1 µM: read-out: FAAH % Inh 1 μM (mouse); for IC50: competitive ABPP
Chain of FAAH (O08914 whole entry): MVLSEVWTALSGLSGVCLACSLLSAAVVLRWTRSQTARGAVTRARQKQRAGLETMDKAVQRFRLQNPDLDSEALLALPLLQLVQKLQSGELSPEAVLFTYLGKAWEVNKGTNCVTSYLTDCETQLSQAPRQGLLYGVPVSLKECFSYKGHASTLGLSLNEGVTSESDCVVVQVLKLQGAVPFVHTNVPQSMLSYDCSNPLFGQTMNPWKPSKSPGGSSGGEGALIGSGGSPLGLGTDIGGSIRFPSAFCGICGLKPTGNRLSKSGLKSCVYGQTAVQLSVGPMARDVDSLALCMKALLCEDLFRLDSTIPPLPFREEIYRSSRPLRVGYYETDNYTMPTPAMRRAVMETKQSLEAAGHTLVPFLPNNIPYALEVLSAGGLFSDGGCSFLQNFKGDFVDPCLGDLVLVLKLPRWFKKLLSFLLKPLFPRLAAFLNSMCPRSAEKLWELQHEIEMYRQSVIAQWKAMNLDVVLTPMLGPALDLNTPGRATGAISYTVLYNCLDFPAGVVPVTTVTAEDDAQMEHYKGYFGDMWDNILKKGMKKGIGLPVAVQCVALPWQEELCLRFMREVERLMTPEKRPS
Method: as §1
as §2, with “SDS-PAGE. Following gel imaging, serine hydrolase activity was determined by measuring fluorescent intensity of gel bands corresponding to MAGL, ABHD6 and FAAH using ImageJ 1.43u software.” for “SDS-PAGE.”

SMILES | inhibition at 1 µM (MAGL; mouse proteome) [%] | IC50 (MAGL; mouse proteome) [nM] | inhibition at 1 µM (ABHD6; mouse proteome) [%] | IC50 (ABHD6; mouse proteome) [nM] | inhibition at 1 µM (FAAH; mouse proteome) [%] | IC50 (FAAH; mouse proteome) [nM] | inhibition at 1 µM (MAGL; mouse) [%] | inhibition at 1 µM (ABHD6; mouse) [%] | inhibition at 1 µM (FAAH; mouse) [%]
O=C(OC(C(F)(F)F)C(F)(F)F)N1CCC2(CCCN2Cc2ccc(C(F)(F)F)cc2N2CCCCCC2)CC1 [Example 95, 1,1,1,3,3,3-Hexafluoropropan-2-yl 1-(2-(azepan-1-yl)-4-(trifluoromethyl)benzyl)-1,8-diazaspiro[4.5]decane-8-carboxylate] | 25 to 75 | 100 to 1000 | < 25 | > 1000 | < 25 | > 1000 | – | – | –
CCN1CCN(c2cccc(CN3CCCC34CCN(C(=O)OC(C(F)(F)F)C(F)(F)F)CC4)c2Cl)CC1 [Example 116, 1,1,1,3,3,3-Hexafluoropropan-2-yl 1-(2-chloro-3-(4-ethylpiperazin-1-yl)benzyl)-1,8-diazaspiro[4.5]decane-8-carboxylate] | > 75 | < 100 | < 25 | > 1000 | < 25 | > 1000 | – | – | –
COc1ccccc1CN1CCCC12CCN(C(=O)OC(C(F)(F)F)C(F)(F)F)CC2 [Example 3, 1,1,1,3,3,3-Hexafluoropropan-2-yl 1-(2-methoxybenzyl)-1,8-diazaspiro[4.5]decane-8-carboxylate] | > 75 | 100 to 1000 | < 25 | > 1000 | < 25 | > 1000 | – | – | –
O=C(O)C1COCCN1c1cc(C(F)(F)F)ccc1CN1CCC2(CCN(C(=O)OC(C(F)(F)F)C(F)(F)F)CC2)C1 (stereo not shown) [Example 220] | 25 to 75 | – | < 25 | – | < 25 | – | – | – | –
CS(=O)(=O)N1CCN(c2cccc(CN3CCCC34CCN(C(=O)OC(C(F)(F)F)C(F)(F)F)CC4)c2Cl)CC1 [Example 113, 1,1,1,3,3,3-Hexafluoropropan-2-yl 1-(2-chloro-3-(4-(methylsulfonyl)piperazin-1-yl)benzyl)-1,8-diazaspiro[4.5]decane-8-carboxylate] | > 75 | < 100 | < 25 | > 1000 | < 25 | > 1000 | – | – | –
O=C(OC(C(F)(F)F)C(F)(F)F)N1CCC2(CCCN2Cc2cc(N3CCN(C4CC4)CC3)cc(C(F)(F)F)c2)CC1 [Example 41, 1,1,1,3,3,3-Hexafluoropropan-2-yl 1-(3-(4-cyclopropylpiperazin-1-yl)-5-(trifluoromethyl)benzyl)-1,8-diazaspiro[4.5]decane-8-carboxylate] | > 75 | < 100 | < 25 | > 1000 | < 25 | > 1000 | – | – | –
NC(=O)C1CCN(c2cc(C(F)(F)F)ccc2CN2CCCC23CCN(C(=O)OC(C(F)(F)F)C(F)(F)F)CC3)CC1 [Example 273] | – | – | – | – | – | – | > 75 | 25 to 75 | < 25
O=C(O)C1CCCCN1c1cc(C(F)(F)F)ccc1CN1CCCC12CCN(C(=O)OC(C(F)(F)F)C(F)(F)F)CC2 (stereo not shown) [Example 259] | – | – | – | – | – | – | < 25 | < 25 | < 25
O=C(OC(C(F)(F)F)C(F)(F)F)N1CCC2(CCCN2Cc2ccc(OCCN3CCCCC3)c(Cl)c2)CC1 [Example 15, 1,1,1,3,3,3-Hexafluoropropan-2-yl 1-(3-chloro-4-(2-(piperidin-1-yl)ethoxy)benzyl)-1,8-diazaspiro[4.5]decane-8-carboxylate] | > 75 | 100 to 1000 | < 25 | > 1000 | < 25 | > 1000 | – | – | –
CCOc1ccccc1CN1CCCC12CCN(C(=O)OC(C(F)(F)F)C(F)(F)F)CC2 [Example 6, 1,1,1,3,3,3-Hexafluoropropan-2-yl 1-(2-ethoxybenzyl)-1,8-diazaspiro[4.5]decane-8-carboxylate] | – | 100 to 1000 | – | > 1000 | – | > 1000 | – | – | –
CC(=O)N1CCc2cccc(CN3CCCC34CCN(C(=O)OC(C(F)(F)F)C(F)(F)F)CC4)c2C1 [Example 145, 1,1,1,3,3,3-Hexafluoropropan-2-yl 1-((2-acetyl-1,2,3,4-tetrahydroisoquinolin-8-yl)methyl)-1,8-diazaspiro[4.5]decane-8-carboxylate] | > 75 | < 100 | < 25 | > 1000 | < 25 | > 1000 | – | – | –
COc1cccc(CN2CCCC23CCN(C(=O)OC(C(F)(F)F)C(F)(F)F)CC3)c1 [Example 2, 1,1,1,3,3,3-Hexafluoropropan-2-yl 1-(3-methoxybenzyl)-1,8-diazaspiro[4.5]decane-8-carboxylate] | > 75 | 100 to 1000 | < 25 | > 1000 | < 25 | > 1000 | – | – | –
CCN1CCCc2cccc(CN3CCCC34CCN(C(=O)OC(C(F)(F)F)C(F)(F)F)CC4)c21 [Example 158, 1,1,1,3,3,3-Hexafluoropropan-2-yl 1-((1-ethyl-1,2,3,4-tetrahydroquinolin-8-yl)methyl)-1,8-diazaspiro[4.5]decane-8-carboxylate] | > 75 | 100 to 1000 | < 25 | > 1000 | < 25 | > 1000 | – | – | –
CC1(C)CC2(CCN(C(=O)OC(C(F)(F)F)C(F)(F)F)CC2)CN1Cc1cccc(OC(F)(F)F)c1N1CCOCC1 [Example 190, 1,1,1,3,3,3-Hexafluoropropan-2-yl 3,3-dimethyl-2-(2-morpholino-3-(trifluoromethoxy)benzyl)-2,8-diazaspiro[4.5]decane-8-carboxylate] | > 75 | < 100 | < 25 | > 1000 | < 25 | > 1000 | – | – | –

Other lines, results leading:

inhibition at 1 µM (MAGL; mouse proteome) [%] | IC50 (MAGL; mouse proteome) [nM] | inhibition at 1 µM (ABHD6; mouse proteome) [%] | IC50 (ABHD6; mouse proteome) [nM] | inhibition at 1 µM (FAAH; mouse proteome) [%] | IC50 (FAAH; mouse proteome) [nM] | inhibition at 1 µM (MAGL; mouse) [%] | inhibition at 1 µM (ABHD6; mouse) [%] | inhibition at 1 µM (FAAH; mouse) [%] | SMILES
> 75 | < 100 | ≥ 75 | 100 to 1000 | < 25 | > 1000 | – | – | – | O=C(OC(C(F)(F)F)C(F)(F)F)N1CCC2(CCCN2Cc2ccc(C(F)(F)F)cc2N2CCS(=O)(=O)CC2)CC1 [Example 92, 1,1,1,3,3,3-Hexafluoropropan-2-yl 1-(2-(1,1-dioxidothiomorpholino)-4-(trifluoromethyl)benzyl)-1,8-diazaspiro[4.5]decane-8-carboxylate]
> 75 | – | < 25 | > 1000 | < 25 | – | – | – | – | O=C(OC(C(F)(F)F)C(F)(F)F)N1CCC2(CCCN2Cc2cccc(N3CCOCC3)c2)CC1 [Example 69, 1,1,1,3,3,3-Hexafluoropropan-2-yl 1-(3-morpholinobenzyl)-1,8-diazaspiro[4.5]decane-8-carboxylate]
> 75 | 100 to 1000 | ≥ 75 | 100 to 1000 | < 25 | > 1000 | – | – | – | Cc1ccc(CN2CCC3(CCN(C(=O)OC(C(F)(F)F)C(F)(F)F)CC3)C2)cc1Cl [Example 136, 1,1,1,3,3,3-Hexafluoropropan-2-yl 2-(3-chloro-4-methylbenzyl)-2,8-diazaspiro[4.5]decane-8-carboxylate]
> 75 | 100 to 1000 | ≥ 75 | < 100 | < 25 | > 1000 | – | – | – | O=C(OC(C(F)(F)F)C(F)(F)F)N1CCC2(CCN(Cc3ccc4c(c3)OCCO4)C2)CC1 [Example 137, 1,1,1,3,3,3-Hexafluoropropan-2-yl 2-((2,3-dihydrobenzo[b][1,4]dioxin-6-yl)methyl)-2,8-diazaspiro[4.5]decane-8-carboxylate]
> 75 | < 100 | ≥ 75 | 100 to 1000 | < 25 | > 1000 | – | – | – | O=C(OC(C(F)(F)F)C(F)(F)F)N1CCC2(CCN(Cc3ccc(N4CCOCC4)c(C(F)(F)F)c3)C2)CC1 [Example 140, 1,1,1,3,3,3-Hexafluoropropan-2-yl 2-(4-morpholino-3-(trifluoromethyl)benzyl)-2,8-diazaspiro[4.5]decane-8-carboxylate]
> 75 | < 100 | 25 to 75 | 100 to 1000 | < 25 | > 1000 | – | – | – | NC(=O)c1ccc(CN2CCCC23CCN(C(=O)OC(C(F)(F)F)C(F)(F)F)CC3)cc1C(F)(F)F [Example 181, 1,1,1,3,3,3-Hexafluoropropan-2-yl 1-(4-carbamoyl-3-(trifluoromethyl)benzyl)-1,8-diazaspiro[4.5]decane-8-carboxylate]
> 75 | < 100 | ≥ 75 | 100 to 1000 | < 25 | > 1000 | – | – | – | CC(C)N1CCc2cccc(CN3CCC4(CCN(C(=O)OC(C(F)(F)F)C(F)(F)F)CC4)C3)c2C1 [Example 162, 1,1,1,3,3,3-Hexafluoropropan-2-yl 2-((2-isopropyl-1,2,3,4-tetrahydroisoquinolin-8-yl)methyl)-2,8-diazaspiro[4.5]decane-8-carboxylate]
